Test results: PubChem BioAssay (NCI)
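Cells were grown in 96-well plates and exposed to each compound for 48 hours at five concentrations; endpoints were interpolated linearly between bracketing concentrations, or set to the highest concentration if not reached. TGI marks complete inhibition of growth.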

Tests used:
Experiment in all cases: inhibition of tumour cell growth, NCI panel, 48 h
TK-10 renal = tested on: TK-10 renal
SNB-75 CNS = tested on: SNB-75 CNS
EKVX NSCLC = tested on: EKVX NSCLC
SF-295 CNS = tested on: SF-295 CNS
HOP-62 NSCLC = tested on: HOP-62 NSCLC
CCRF-CEM leukemia = tested on: CCRF-CEM leukemia
786-0 renal = tested on: 786-0 renal
UACC-62 melanoma = tested on: UACC-62 melanoma
BT-549 breast = tested on: BT-549 breast

Compound | TGI (TK-10 renal) | TGI (SNB-75 CNS) | TGI (EKVX NSCLC) | TGI (SF-295 CNS) | TGI (HOP-62 NSCLC) | TGI (CCRF-CEM leukemia) | TGI (786-0 renal) | TGI (UACC-62 melanoma) | TGI (BT-549 breast)
COc1ccc(NS(=O)c2cccc(C)c2)cc1 (stereo not given) | > 100 µM | > 100 µM | > 100 µM | > 100 µM | > 100 µM | > 100 µM | > 100 µM | – | –
O=C(NC/C=C/Br)NC1CCNc2ccccc21 (stereo not given) | > 100 µM | > 100 µM | 92.6 µM | > 100 µM | > 100 µM | > 100 µM | 81.9 µM | 58.7 µM | –
Cc1ccc2c(=O)c(C(=O)N(CCO)CCO)c[nH]c2n1 | > 100 µM | – | > 100 µM | > 100 µM | > 100 µM | > 100 µM | > 100 µM | > 100 µM | > 100 µM
CC1(C)CC2(C)OC(=N)C1(C#N)C2(C#N)C#N (stereo not given) | 22.7 µM | – | 19.4 µM | 31.5 µM | – | – | 16.7 µM | 24.9 µM | –
COc1ccc(NC(=S)NNC(=O)c2cc(-c3ccccc3)nc3ccccc23)cc1 | 46.8 µM | 70.3 µM | – | 16.4 µM | 33.3 µM | 34.8 µM | 40.5 µM | 30.6 µM | 39.8 µM
C=CCn1c(=O)c2ccccc2[n+]2c(-c3cccc([N+](=O)[O-])c3)csc12 | > 100 µM | 69.9 µM | > 100 µM | > 100 µM | > 100 µM | > 100 µM | > 100 µM | > 100 µM | –
O=C(C=P(c1ccccc1)(c1ccccc1)c1ccccc1)c1ccc(-c2ccc(F)cc2F)cc1 | 7.2 µM | – | 11 µM | 9.87 µM | 15.5 µM | 7.06 µM | 13.7 µM | 4.25 µM | –
C/C(=C\CNc1nc(Cl)nc2nc[nH]c12)CO | > 100 µM | > 100 µM | > 100 µM | > 100 µM | > 100 µM | > 100 µM | > 100 µM | > 100 µM | –
Oc1ccc2ccccc2c1OCc1nnc(CCCCCCCCc2nnc(COc3c(O)ccc4ccccc34)o2)o1 | > 100 µM | > 100 µM | > 100 µM | > 100 µM | – | – | > 100 µM | > 100 µM | > 100 µM
Cc1nnc2sc(-c3ccc([N+](=O)[O-])o3)nn12 | 28.6 µM | – | 37.7 µM | 31 µM | 28.5 µM | > 100 µM | 22 µM | 22.1 µM | 22.5 µM
CCCCCCCCCCCCCCCCNc1ccn(C2CC(OP(=O)(O)OCC3OC(n4cc(CC)c(=O)[nH]c4=O)CC3O)C(CO)O2)c(=O)n1 (stereo not given) | > 100 µM | 81.1 µM | > 100 µM | 34.5 µM | 53.9 µM | – | > 100 µM | 35.8 µM | –
CN(C)c1ccc(/C=C2\C[C@H]3[C@@H]4CCc5cc(O)ccc5[C@H]4CC[C@]3(C)C2=O)cc1 | > 100 µM | > 100 µM | > 100 µM | > 100 µM | > 100 µM | > 100 µM | – | 86.1 µM | –
O=c1/c(=C/c2ccc(-c3ccc(Cl)cc3Cl)o2)sc2n1[C@@H](c1ccc3c(c1)OCO3)C=C(c1cc(F)c(Cl)cc1Cl)N=2 | 59 µM | > 100 µM | – | > 100 µM | 28.9 µM | > 100 µM | > 100 µM | > 100 µM | > 100 µM
O=c1c(-c2ccc(O)cc2)coc2cc(O)cc(O)c12 | > 100 µM | – | > 100 µM | > 100 µM | – | – | > 100 µM | > 100 µM | > 100 µM
CC1(C)Oc2ccc3c(=O)c4ccccc4oc3c2C1C(=O)O (stereo not given) | > 100 µM | – | > 100 µM | > 100 µM | > 100 µM | > 100 µM | > 100 µM | > 100 µM | > 100 µM
CCOC(=O)c1c(-c2ccc(OC)c(O)c2)c(C#N)c(=S)n(C2OC(CO)C(O)C(O)C2O)c1-c1ccccc1 (stereo not given) | – | – | > 100 µM | > 100 µM | > 100 µM | > 100 µM | > 100 µM | > 100 µM | –
O=C(O)CCCc1ccc2c(c1)CC1(C2)Cc2ccc(CCCC(=O)O)cc2C1 | > 100 µM | – | > 100 µM | > 100 µM | > 100 µM | > 100 µM | > 100 µM | > 100 µM | –
CCOC(=O)c1cn(C)nc1N/C(C)=C\C(=O)c1ccccc1 | > 100 µM | – | > 100 µM | > 100 µM | > 100 µM | > 100 µM | > 100 µM | > 100 µM | > 100 µM
COc1cccc(C2CC(=O)c3cccn32)c1 (stereo not given) | > 100 µM | > 100 µM | > 100 µM | > 100 µM | > 100 µM | > 100 µM | > 100 µM | > 100 µM | –
C=C1C(=O)O[C@H]2C/C(C=O)=C\[C@H]3O[C@H]3/C(COC(=O)C(C)C)=C/CC12 (stereo not given in full) | 25.7 µM | – | 29.8 µM | 75.5 µM | 26.5 µM | 6.63 µM | 10.7 µM | 5.42 µM | 24.8 µM
C=C(C(=O)OC)[C@H]1CC/C(C)=C/CC/C(C)=C/CC[C@@]2(C)O[C@@H]2C1 | 59 µM | > 100 µM | 39.5 µM | 29.6 µM | 42.5 µM | 30 µM | 29.2 µM | 26 µM | –
